Values quoted from earlier work in patent publication US10603349B2, “Method for preparing pharmaceutical compositions of rhizomes from Alpinia galanga or Alpinia conchigera having a high content of 1′S-1′-acetoxychavicol acetate (ACA)” (NERTHUS APS, priority 2013, dated 2020).

Test system: whole-body insulin resistance
Settings: fructose-induced rat model of metabolic syndrome

Structure (SMILES): O=c1c(O)c(-c2ccccc2)oc2cc(O)cc(O)c12 [Galangin, galangin]
- Blood glucose and insulin levels: dose-dependently normalized
